ChEMBL document CHEMBL3860091, “Synthesis and activity of newly designed aroxyalkyl or aroxyethoxyethyl derivatives of piperazine on the cardiovascular and the central nervous systems” (Bioorg Med Chem Lett, 2016)
Activity calls are given as the source filed them. The calls are words filed in the database; no cut-off is given here.

How the values were obtained:
Rattus norvegicus [1] = assay: Hypotensive activity in normotensive anesthetized Wistar rat assessed as systolic blood pressure at 0.5 mg/kg, iv measured 20 mins post dose (reference value: 107.4 to 148.3 mmHg); format: functional
Rattus norvegicus [2] = assay: Hypotensive activity in normotensive anesthetized Wistar rat assessed as systolic blood pressure at 1 mg/kg, iv measured 10 mins post dose (reference value: 107.4 to 148.3 mmHg); format: functional
Rattus norvegicus [3] = assay: Hypotensive activity in normotensive anesthetized Wistar rat assessed as diastolic blood pressure at 0.5 mg/kg, iv measured 10 mins post dose (reference value: 81.6 to 115.2 mmHg); format: functional
Rattus norvegicus [4] = assay: Hypotensive activity in normotensive anesthetized Wistar rat assessed as diastolic blood pressure at 0.5 mg/kg, iv measured 30 mins post dose (reference value: 81.6 to 115.2 mmHg); format: functional
Rattus norvegicus [5] = assay: Hypotensive activity in normotensive anesthetized Wistar rat assessed as systolic blood pressure at 0.5 mg/kg, iv measured 30 mins post dose (reference value: 107.4 to 148.3 mmHg); format: functional
[6] = target: T1, Adrenergic receptor alpha-2 (Rattus norvegicus, UniProt P22086+P19328+P22909); assay: Displacement of [3H]clonidine from alpha2 adrenergic receptor in rat brain cerebral cortex after 25 mins by microbeta scintillation counting method; format: tissue-based
T1 sequence (P22086 whole entry): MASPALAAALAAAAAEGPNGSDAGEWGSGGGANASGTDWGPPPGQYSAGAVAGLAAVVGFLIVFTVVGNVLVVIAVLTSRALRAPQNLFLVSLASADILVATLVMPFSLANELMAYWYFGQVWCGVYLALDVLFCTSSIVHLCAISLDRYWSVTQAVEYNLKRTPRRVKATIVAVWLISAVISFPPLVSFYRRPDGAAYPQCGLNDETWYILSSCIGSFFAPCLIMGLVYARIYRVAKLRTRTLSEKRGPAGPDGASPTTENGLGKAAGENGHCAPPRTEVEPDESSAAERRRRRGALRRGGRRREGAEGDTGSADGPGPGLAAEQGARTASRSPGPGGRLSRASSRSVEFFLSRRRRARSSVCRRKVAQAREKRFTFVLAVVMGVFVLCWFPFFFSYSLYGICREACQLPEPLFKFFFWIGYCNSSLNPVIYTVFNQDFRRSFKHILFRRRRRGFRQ
T1 sequence (P19328 whole entry): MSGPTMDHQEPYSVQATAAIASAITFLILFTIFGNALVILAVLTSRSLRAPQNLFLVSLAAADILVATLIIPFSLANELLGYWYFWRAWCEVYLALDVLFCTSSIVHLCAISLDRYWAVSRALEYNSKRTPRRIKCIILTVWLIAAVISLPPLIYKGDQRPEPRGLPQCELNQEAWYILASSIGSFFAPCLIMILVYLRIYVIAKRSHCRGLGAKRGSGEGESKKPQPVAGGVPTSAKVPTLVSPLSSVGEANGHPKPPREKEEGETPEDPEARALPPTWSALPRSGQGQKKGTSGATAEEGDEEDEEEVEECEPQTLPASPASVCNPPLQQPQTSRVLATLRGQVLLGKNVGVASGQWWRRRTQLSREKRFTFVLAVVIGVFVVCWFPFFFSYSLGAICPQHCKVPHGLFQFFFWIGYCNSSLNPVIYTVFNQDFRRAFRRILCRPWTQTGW
T1 sequence (P22909 whole entry): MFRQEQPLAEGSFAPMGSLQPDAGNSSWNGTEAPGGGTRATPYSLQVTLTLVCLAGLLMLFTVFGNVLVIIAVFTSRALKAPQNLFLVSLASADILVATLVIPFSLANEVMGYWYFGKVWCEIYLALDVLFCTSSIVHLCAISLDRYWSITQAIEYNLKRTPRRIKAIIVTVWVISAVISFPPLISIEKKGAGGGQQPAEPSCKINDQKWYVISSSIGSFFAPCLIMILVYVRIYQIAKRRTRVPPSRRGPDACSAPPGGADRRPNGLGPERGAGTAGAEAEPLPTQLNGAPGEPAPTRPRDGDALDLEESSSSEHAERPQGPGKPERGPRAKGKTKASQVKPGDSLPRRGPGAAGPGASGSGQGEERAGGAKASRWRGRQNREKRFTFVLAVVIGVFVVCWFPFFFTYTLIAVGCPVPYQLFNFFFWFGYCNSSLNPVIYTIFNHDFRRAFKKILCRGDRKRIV

Rattus norvegicus [7] = assay: Hypotensive activity in normotensive anesthetized Wistar rat assessed as systolic blood pressure at 0.5 mg/kg, iv measured 60 mins post dose (reference value: 107.4 to 148.3 mmHg); format: functional
Rattus norvegicus [8] = assay: Hypotensive activity in normotensive anesthetized Wistar rat assessed as systolic blood pressure at 0.1 mg/kg, iv measured 60 mins post dose (reference value: 107.4 to 148.3 mmHg); format: functional
Rattus norvegicus [9] = assay: Hypotensive activity in normotensive anesthetized Wistar rat assessed as diastolic blood pressure at 0.5 mg/kg, iv measured 60 mins post dose (reference value: 81.6 to 115.2 mmHg); format: functional
Rattus norvegicus [10] = assay: Inhibition of adrenaline-induced pressor response in normotensive Wistar rat at 1 mg/kg, iv measured 5 mins post dose; format: functional, organism-based
Rattus norvegicus [11] = assay: Hypotensive activity in normotensive anesthetized Wistar rat assessed as systolic blood pressure at 0.5 mg/kg, iv measured 10 mins post dose (reference value: 107.4 to 148.3 mmHg); format: functional
Rattus norvegicus [12] = assay: Hypotensive activity in normotensive anesthetized Wistar rat assessed as diastolic blood pressure at 0.1 mg/kg, iv measured 5 mins post dose (reference value: 81.6 to 115.2 mmHg); format: functional
Rattus norvegicus [13] = assay: Hypotensive activity in normotensive anesthetized Wistar rat assessed as diastolic blood pressure at 0.5 mg/kg, iv measured 20 mins post dose (reference value: 81.6 to 115.2 mmHg); format: functional
Rattus norvegicus [14] = assay: Hypotensive activity in normotensive anesthetized Wistar rat assessed as diastolic blood pressure at 0.5 mg/kg, iv measured 5 mins post dose (reference value: 81.6 to 115.2 mmHg); format: functional
Rattus norvegicus [15] = assay: Hypotensive activity in normotensive anesthetized Wistar rat assessed as diastolic blood pressure at 1 mg/kg, iv measured 5 mins post dose (reference value: 81.6 to 115.2 mmHg); format: functional
Rattus norvegicus [16] = assay: Hypotensive activity in normotensive anesthetized Wistar rat assessed as systolic blood pressure at 0.5 mg/kg, iv measured 5 mins post dose (reference value: 107.4 to 148.3 mmHg); format: functional
[17] = Antidepressant-like activity in albino Swiss (CD-1) mouse assessed as immobility time at 5 mg/kg, ip administered 30 mins prior to test measured for last 4 mins of 6 mins observation by forced swim test (reference value: 178.3 +/- 12.3 sec); format: functional, organism-based
[18] = Antidepressant-like activity in albino Swiss (CD-1) mouse assessed as immobility time at 2.5 mg/kg, ip administered 30 mins prior to test measured for last 4 mins of 6 mins observation by forced swim test (reference value: 178.3 +/- 12.3 sec); format: functional, organism-based
Mus musculus = assay: Toxicity in albino Swiss (CD-1) mouse assessed as effect on spontaneous locomotor activity by measuring number of crossings at 5 mg/kg, ip administered 30 mins prior to test measured for last 4 mins of 6 mins observation (reference value: 191.5 to 225.4); format: organism-based; details: in vivo

Row | Structure (SMILES) | Ki [6] [nM] | Activity (Rattus norvegicus [1]) [mmHg] | Activity (Rattus norvegicus [2]) [mmHg] | Activity (Rattus norvegicus [3]) [mmHg] | Activity (Rattus norvegicus [4]) [mmHg] | Activity (Rattus norvegicus [5]) [mmHg] | Activity (Rattus norvegicus [7]) [mmHg] | Activity (Rattus norvegicus [8]) [mmHg] | Activity (Rattus norvegicus [9]) [mmHg] | inhibition (Rattus norvegicus [10]) | Activity (Rattus norvegicus [11]) [mmHg] | Activity (Rattus norvegicus [12]) [mmHg] | Activity (Rattus norvegicus [13]) [mmHg] | Activity (Rattus norvegicus [14]) [mmHg] | Activity (Rattus norvegicus [15]) [mmHg] | Activity (Rattus norvegicus [16]) [mmHg] | TIME [17] [h] | TIME [18] [h] | Activity (Mus musculus)
1 | Cc1cccc(OCCCN2CCN(c3ccccc3)CC2)c1C.Cl.Cl | 810 | – | 138 | – | – | – | – | – | – | – | – | – | – | – | 111.8 | – | – | – | –
2 | Cc1cccc(Cl)c1OCCCCN1CCN(c2ccccc2)CC1.Cl.Cl | 505.7 | 138 | 127.7 | 101 | 101.5 | 131.5 | 130.8 | – | 97 | – | 135.3 | – | 102.5 | 100.5 | 103.7 | 135 | 0.0416 | – | 152.4
3 | Cc1cccc(OCCN2CCN(c3ccccc3)CC2)c1C.Cl.Cl | 289 | – | 97.2 | – | – | – | – | – | – | – | – | – | – | – | 75.2 | – | – | – | –

More lines, main results first:

Row | Ki [6] [nM] | Structure (SMILES) | Activity (Rattus norvegicus [1]) [mmHg] | Activity (Rattus norvegicus [2]) [mmHg] | Activity (Rattus norvegicus [3]) [mmHg] | Activity (Rattus norvegicus [4]) [mmHg] | Activity (Rattus norvegicus [5]) [mmHg] | Activity (Rattus norvegicus [7]) [mmHg] | Activity (Rattus norvegicus [8]) [mmHg] | Activity (Rattus norvegicus [9]) [mmHg] | inhibition (Rattus norvegicus [10]) | Activity (Rattus norvegicus [11]) [mmHg] | Activity (Rattus norvegicus [12]) [mmHg] | Activity (Rattus norvegicus [13]) [mmHg] | Activity (Rattus norvegicus [14]) [mmHg] | Activity (Rattus norvegicus [15]) [mmHg] | Activity (Rattus norvegicus [16]) [mmHg] | TIME [17] [h] | TIME [18] [h] | Activity (Mus musculus)
4 | 370.5 | COc1ccccc1N1CCN(CCCCOc2c(C)cccc2C)CC1.Cl | 121.7 | 126.2 | 100.8 | 98.8 | 119.3 | 115.3 | 127.7 | 94.3 | Active | 122.7 | 112.7 | 99.8 | 102 | 109.8 | 124.2 | – | – | –
5 | 893 | COc1ccccc1N1CCN(CCOCCOc2cccc(C)c2C)CC1.Cl.Cl | – | 131 | – | – | – | – | – | – | – | – | – | – | – | 105 | – | 0.0339 | 0.0447 | 232.5
